Ends that are not written are not given here.
Columns and labels:
[1] = tested on: anti-ribosomal P protein antibodies (IgG) in serum samples; test: Antibody detection by covalent ELISA (peptide covalently linked to plate); type: binding, human; settings: for healthy donor positive sera (%): 6 healthy donor sera diluted 1:100; for SLE positive sera (%): 8 SLE sera diluted 1:100; for SLE positive sera (positive/tested): SLE sera diluted 1:100; for healthy donor positive sera (positive/tested): healthy donor sera diluted 1:100
Method: A peptide, prepared as described in example 1, was covalently linked to a 96-wells microtitre plate (carboxy or amine binding plate) using sulfo-N-hydroxysuccinimide and 1-ethyl-3-(3-dimethylaminopropyl)carbodiimide. Peptide coupling took place for 2 h at r.t. The plate was blocked for 1 h with 5% FBS in PBS or with 0.5 M Gly (pH 8). The patients serum samples were diluted 1:100 in FBS buffer and were then loaded onto the plate for 1.5 h at r.t. After plate washings, an anti human-IgG antibody conjugated to the enzyme alkaline phosphatase was added and incubated for 1.5 h at r.t. After washings, the alkaline phosphate substrate p-nitrophenyl phosphate was added to the wells. After the quenching of the enzymatic reaction with 1 M NaOH, the absorbance was evaluated at a wavelength of 405 nm.

[2] = tested on: anti-ribosomal P protein antibodies (IgG) in serum samples; test: Antibody detection by ELISA (peptide adsorbed onto microtitre plate); type: binding, human
Method: A peptide, prepared as described in example 1 and diluted in 0.05 M carbonate buffer (pH 9.6) or in PBS buffer (pH 7.4) was adsorbed onto 96-wells microtitre plates for 4 h at r.t. The wells were treated for 1 h at r.t. with FBS (FBS 5% in PBS). The patients serum samples (diluted 1:100) were then loaded onto the plate and allowed to react overnight at +4° C. After plate washing, an anti human-IgG antibody conjugated to the enzyme alkaline phosphatase was added and incubated for 3 h at r.t. After washings, the alkaline phosphate substrate p-nitrophenyl phosphate was added to the wells. After the quenching of the enzymatic reaction with 1 M NaOH, the absorbance was evaluated at a wavelength of 405 nm.
In total, 25 serum samples of patients suffering from SLE and 68 serum of healthy blood donors were tested by this method.

[3] = tested on: SLE specific auto-antibodies in patients sera; settings: literature; cited from earlier work

Substance	healthy donor positive sera (%) [1] [%]	SLE positive sera (%) [1] [%]	SLE positive sera (positive/tested) [1]	healthy donor positive sera (positive/tested) [1]	SLE positive sera (%) ([2]; 25 SLE sera, diluted 1:100, adsorbed peptide)	healthy donor positive sera (%) ([2]; 68 healthy blood donor sera, diluted 1:100, adsorbed peptide)	number of SLE sera negative to peptide 9 in which anti ribosomal antibodies were detected ([2]; SLE serum negative to peptide 9)	number of peptide 9-positive SLE sera showing cross-reactivity with peptide 1 ([2]; among the SLE sera positive to peptide 9)	healthy donor positive sera (positive/tested) ([2]; sera of healthy blood donors, diluted 1:100, adsorbed peptide)	SLE positive sera (positive/tested) ([2]; sera of patients suffering from SLE, diluted 1:100, adsorbed peptide, absorbance 405 nm)	patients sera in which SLE specific auto-antibodies are detected [3]
GVNVEPFWPGL [Peptide 3]	0	12	1/8	0/6	–	–	–	–	–	–	–
LIKAAGVNVE [Peptide 2]	0	37	3/8	0/6	–	–	–	–	–	–	–
LIKAAGVNVEPFWPGLFAKA [Peptide 1, linear peptide derived from the N-terminal region of human ribosomal P1 protein]	0	50	4/8	0/6	32	1	3	4	1/68	8/25	–
NH2-Lys-Lys-Glu-Glu-Lys-Lys-Glu-Glu-Ser-Glu-Glu-Glu-Asp-Glu-Asp-Met-Gly-Phe-Gly-Leu-Phe-Asp-COOH (H-KKEEKKEESEEEDEDMGFGLFD-OH) [Peptide C-22, peptide comprising the last 22 amino acids of ribosomal P proteins]	–	–	–	–	–	–	–	–	–	–	10-20%
PFWPGLFAKA [Peptide 4]	0	12	1/8	0/6	–	–	–	–	–	–	–

Reference: patent US20110028409A1, “DETECTION OF ANTI-RIBOSOMAL P PROTEIN ANTIBODIES BY MEANS OF SYNTHETIC PEPTIDES” (TOSCANA BIOMARKERS S.R.L., priority 2009, published 2011)
